Assay results as given in patent publication US20240018118A1, “TRICYCLIC COMPOUNDS TO DEGRADE NEOSUBSTRATES FOR MEDICAL THERAPY” (C 4 Therapeutics, Inc., priority 2020, published 2024).
Read-outs that look alike come from different tables or passages of the source.

What was measured:
[1] = molecular target: T1, IKZF1 (Homo sapiens, UniProt Q13422+Q96SW2); experiment: HiBiT degradation assay, NCIH929.11 (HiBiT-IKZF1) cells; assay type: cell-based; conditions: for DC50: NCHI929.11 cells, 6 hours; for Emax: read-out: HiBiT-Degradation NCHI929.11 IKZF1 6 hours Emax, NCHI929.11 cells
T1 construct: endogenously expressing IKZF1 with HiBiT fusion tag via CRISPR; endogenous in cells; host or cells: NCIH929.11 (CRISPR knock-in)
Procedure: RPMI no-phenol red medium and fetal bovine serum (FBS) were purchased from Gibco (Grand Island, NY, USA). Nano-Glo® HiBiT Lytic Assay System was purchased from Promega (Madison, WI, USA). NCIH929.11 (HiBiT-IKZF1) cell line was generated in house, endogenously expressing IKZF1 with HiBiT fusion tag via CRISPR. Cell culture flasks and 384-well microplates were acquired from VWR (Radnor, PA, USA).
IKZF 1 degradation was determined based on quantification of luminescent signal using Nano-Glo® HiBiT Lytic Assay kit. Test compounds were added to the 384-well plate from a top concentration of 10 μM with 11 points, half-log titration in duplicates. NCIH929.11 cells expressing HiBiT-tagged TKZF1 were added into 384-well plates in RPMI medium containing 10% FBS and 0.05 mM 2-mercaptoethanol at a cell density of 15000 cells per well. The plates were kept at 37° C. with […] for 6 hours. Cells treated in the absence of the test compound were the negative control and wells containing media only were the positive control. After 6-hour incubation, Nano-Glo® HiBiT Lytic Assay reagents were added to the designated wells. Luminescence was acquired on EnVision™ Multilabel Reader (PerkinElmer, Santa Clara, CA, USA).

[2] = molecular target: GSPT1 (Homo sapiens, UniProt P15170+Q96SW2); experiment: HiBiT degradation assay, 293T.114 cells, GSPT1; assay type: cell-based; conditions: for DC50: read-out: HiBiT-Degradation 293T.114 GSPT1 6 hours DC50
Procedure: GSPT1 degradation was determined based on quantification of luminescent signal using Nano-Glo® HiBiT Lytic Assay kit. Test compounds were added to the 384-well plate from a top concentration of 10 μM with 5 points, 3-fold titration in quadruplicates. 293T.114 cells were added into 384-well plates at a cell density of 6000 cells per well. […] The cells treated in the absence of the test compound were the negative control and the cells without Nano-Glo® HiBiT Lytic reagent were the positive control. […] Luminescence was acquired on EnVision™ Multilabel Reader (PerkinElmer, Santa Clara, CA, USA).

[3] = molecular target: SALL4 (Homo sapiens, UniProt Q96SW2+Q9UJQ4); experiment: HiBiT degradation assay, KELLY.2 (SALL4-HiBiT) cells; assay type: cell-based; conditions: for DC50: KELLY.2 cells, 6 hours; for Emax: read-out: HiBiT-Degradation KELLY.2 SALL4 6 hours Emax, KELLY.2 cells
Procedure: RPMI 1640 Medium without phenol red, fetal bovine serum (FBS), and Sodium Pyruvate (100 mM) were purchased from Gibco (Grand Island, NY, USA). Nano-Glo® HiBiT Lytic Assay System was purchased from Promega (Madison, WI, USA). […] Cell culture flasks and 384-well microplates were acquired from VWR (Radnor, PA, USA).
SALL4 degradation was determined based on quantification of luminescent signal using Nano-Glo® HiBiT Lytic Assay kit. Test compounds were added to the 384-well plate from a top concentration of 10 μM with 11 points, half log titration in duplicates. KELLY.2 cells were added into 384-well plates at a cell density of 6000 cells per well. The plates were kept at 37° C. with 5% CO2 for 6 hours. The cells treated in the absence of the test compound were the negative control and the cells without Nano-Glo® HiBiT Lytic reagent were the positive control. After 6-hour incubation, Nano-Glo® HiBiT Lytic Assay reagents were added to the cells. Luminescence was acquired on EnVision™ Multilabel Reader (PerkinElmer, Santa Clara, CA, USA).

[4] = molecular target: T2, CRBN (Homo sapiens, UniProt Q96SW2); experiment: NanoBRET CRBN binding, 293T.116 cells; conditions: 2 hours
T2 construct: expressed in transfected cells; host or cells: 293T (line named 293T.116)

[5] = read-out: GSPT1 Emax @ 10 μM 24 Hours, 24 hours
[6] = read-out: HiBiT-Degradation 293T.114 GSPT1 6 hours Emax, 293T.114 cells, 6 hours

Chain of GSPT1 (P15170 whole entry): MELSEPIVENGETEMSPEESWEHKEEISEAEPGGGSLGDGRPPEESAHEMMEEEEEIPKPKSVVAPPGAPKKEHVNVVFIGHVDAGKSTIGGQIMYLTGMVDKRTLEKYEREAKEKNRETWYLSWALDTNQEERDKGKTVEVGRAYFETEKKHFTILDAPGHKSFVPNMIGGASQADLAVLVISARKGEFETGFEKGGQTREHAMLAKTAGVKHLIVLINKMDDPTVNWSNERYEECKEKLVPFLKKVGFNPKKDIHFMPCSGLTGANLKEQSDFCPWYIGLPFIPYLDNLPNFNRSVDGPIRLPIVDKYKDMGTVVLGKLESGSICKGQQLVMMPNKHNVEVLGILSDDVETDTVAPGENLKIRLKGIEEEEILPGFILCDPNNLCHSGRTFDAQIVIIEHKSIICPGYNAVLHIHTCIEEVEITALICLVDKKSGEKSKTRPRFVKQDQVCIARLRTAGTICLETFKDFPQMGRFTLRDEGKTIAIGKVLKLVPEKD
Chain of GSPT1 (Q96SW2 whole entry): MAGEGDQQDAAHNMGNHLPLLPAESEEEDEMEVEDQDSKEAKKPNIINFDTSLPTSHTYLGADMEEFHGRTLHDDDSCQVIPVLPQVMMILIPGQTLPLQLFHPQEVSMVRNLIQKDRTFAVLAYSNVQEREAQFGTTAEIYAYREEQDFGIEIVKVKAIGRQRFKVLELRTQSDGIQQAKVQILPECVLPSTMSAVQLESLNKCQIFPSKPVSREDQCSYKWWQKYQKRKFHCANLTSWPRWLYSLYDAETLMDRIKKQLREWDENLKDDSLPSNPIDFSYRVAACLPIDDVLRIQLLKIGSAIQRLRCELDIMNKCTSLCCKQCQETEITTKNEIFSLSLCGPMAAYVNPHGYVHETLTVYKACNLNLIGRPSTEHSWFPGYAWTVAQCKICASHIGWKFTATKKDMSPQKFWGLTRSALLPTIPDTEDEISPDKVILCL
Chain of GSPT1 (Q16531 2-1140 partner limits assumed): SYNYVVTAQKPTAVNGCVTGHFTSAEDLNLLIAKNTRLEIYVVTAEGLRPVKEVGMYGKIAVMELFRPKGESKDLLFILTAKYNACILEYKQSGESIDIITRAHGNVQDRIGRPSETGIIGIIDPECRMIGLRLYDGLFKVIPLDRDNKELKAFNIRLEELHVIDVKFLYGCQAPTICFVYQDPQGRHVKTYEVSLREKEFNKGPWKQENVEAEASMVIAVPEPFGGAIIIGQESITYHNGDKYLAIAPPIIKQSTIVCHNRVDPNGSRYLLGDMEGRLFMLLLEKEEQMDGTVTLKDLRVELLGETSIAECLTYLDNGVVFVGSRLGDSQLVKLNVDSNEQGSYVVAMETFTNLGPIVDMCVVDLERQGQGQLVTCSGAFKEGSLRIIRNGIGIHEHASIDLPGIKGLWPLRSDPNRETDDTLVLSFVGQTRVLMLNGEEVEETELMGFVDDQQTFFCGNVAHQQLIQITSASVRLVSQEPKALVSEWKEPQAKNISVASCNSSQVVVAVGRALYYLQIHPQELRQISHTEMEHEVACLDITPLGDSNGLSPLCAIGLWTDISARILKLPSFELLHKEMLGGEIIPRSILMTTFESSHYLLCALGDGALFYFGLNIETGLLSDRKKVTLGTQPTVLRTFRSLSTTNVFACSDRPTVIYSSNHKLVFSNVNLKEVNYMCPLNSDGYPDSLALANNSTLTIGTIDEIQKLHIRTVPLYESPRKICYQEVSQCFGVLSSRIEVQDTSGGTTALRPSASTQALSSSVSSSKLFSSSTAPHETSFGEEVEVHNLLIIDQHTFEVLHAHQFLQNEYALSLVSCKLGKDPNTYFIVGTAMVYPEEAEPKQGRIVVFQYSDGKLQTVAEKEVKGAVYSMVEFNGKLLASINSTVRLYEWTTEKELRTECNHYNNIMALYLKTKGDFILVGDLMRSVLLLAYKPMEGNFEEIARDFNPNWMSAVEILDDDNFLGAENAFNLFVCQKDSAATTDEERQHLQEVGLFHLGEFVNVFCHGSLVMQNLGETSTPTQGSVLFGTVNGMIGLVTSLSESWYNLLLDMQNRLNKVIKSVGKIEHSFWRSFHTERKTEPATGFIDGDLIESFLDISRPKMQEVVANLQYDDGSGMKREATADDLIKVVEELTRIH
T1 sequence (Q13422 whole entry, the tested form may be a part): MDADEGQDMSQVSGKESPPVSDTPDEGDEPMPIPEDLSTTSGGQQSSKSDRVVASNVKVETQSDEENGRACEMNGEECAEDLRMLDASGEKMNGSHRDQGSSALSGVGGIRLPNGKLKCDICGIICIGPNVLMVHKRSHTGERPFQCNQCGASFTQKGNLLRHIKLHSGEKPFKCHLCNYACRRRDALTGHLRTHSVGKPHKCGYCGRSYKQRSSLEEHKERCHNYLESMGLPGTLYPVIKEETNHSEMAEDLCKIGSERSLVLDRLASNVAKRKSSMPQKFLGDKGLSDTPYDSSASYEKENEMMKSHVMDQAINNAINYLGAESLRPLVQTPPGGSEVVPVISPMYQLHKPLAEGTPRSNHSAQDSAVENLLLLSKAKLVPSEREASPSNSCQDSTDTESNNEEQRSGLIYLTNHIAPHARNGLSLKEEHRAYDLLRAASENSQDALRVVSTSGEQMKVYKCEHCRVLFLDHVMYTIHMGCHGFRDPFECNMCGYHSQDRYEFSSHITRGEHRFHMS
T1 sequence (Q96SW2 whole entry, the tested form may be a part): as the sequence (Q96SW2 whole entry) above
T1 sequence (Q16531 2-1140 partner limits assumed): as the sequence (Q16531 2-1140 partner limits assumed) above
Chain of SALL4 (Q9UJQ4 whole entry): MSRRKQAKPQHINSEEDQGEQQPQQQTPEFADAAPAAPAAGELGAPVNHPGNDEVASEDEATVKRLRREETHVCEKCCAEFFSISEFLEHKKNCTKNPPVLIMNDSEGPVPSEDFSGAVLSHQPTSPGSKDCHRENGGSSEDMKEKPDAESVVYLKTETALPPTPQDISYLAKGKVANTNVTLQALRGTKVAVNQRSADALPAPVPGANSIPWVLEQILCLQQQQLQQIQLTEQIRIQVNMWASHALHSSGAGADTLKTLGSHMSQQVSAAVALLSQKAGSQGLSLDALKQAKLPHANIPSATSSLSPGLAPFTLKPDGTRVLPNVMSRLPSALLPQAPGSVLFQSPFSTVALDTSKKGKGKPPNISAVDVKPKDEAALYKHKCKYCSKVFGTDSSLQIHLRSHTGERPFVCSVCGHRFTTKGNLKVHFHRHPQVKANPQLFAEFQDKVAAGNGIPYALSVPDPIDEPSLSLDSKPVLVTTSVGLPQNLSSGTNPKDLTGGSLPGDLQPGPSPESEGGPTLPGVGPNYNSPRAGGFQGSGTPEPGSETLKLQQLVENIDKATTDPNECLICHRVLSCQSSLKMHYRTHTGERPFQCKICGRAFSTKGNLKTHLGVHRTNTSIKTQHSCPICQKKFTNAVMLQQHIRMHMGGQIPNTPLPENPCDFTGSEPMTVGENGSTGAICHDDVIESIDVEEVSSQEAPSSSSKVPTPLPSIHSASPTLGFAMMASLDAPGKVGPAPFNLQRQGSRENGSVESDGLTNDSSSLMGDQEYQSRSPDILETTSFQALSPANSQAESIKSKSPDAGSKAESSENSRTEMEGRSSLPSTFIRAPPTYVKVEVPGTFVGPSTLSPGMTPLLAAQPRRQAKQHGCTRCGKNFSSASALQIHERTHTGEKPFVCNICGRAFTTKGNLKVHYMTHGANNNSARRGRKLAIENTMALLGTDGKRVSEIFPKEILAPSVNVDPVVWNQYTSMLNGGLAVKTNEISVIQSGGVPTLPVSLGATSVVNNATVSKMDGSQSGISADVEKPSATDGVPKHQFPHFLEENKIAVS
Chain of SALL4 (Q96SW2 whole entry): as the sequence (Q96SW2 whole entry) above
Chain of SALL4 (Q16531 2-1140 partner limits assumed): as the sequence (Q16531 2-1140 partner limits assumed) above
T2 sequence (Q96SW2 whole entry): as the sequence (Q96SW2 whole entry) above
T2 sequence (Q16531 2-1140 partner limits assumed): as the sequence (Q16531 2-1140 partner limits assumed) above

| SMILES | DC50 [1] [nM] | Emax [1] [%] | DC50 ([2]; 293T.114 cells, 6 hours) [nM] | Emax [2, 5] [%] | Emax [2, 6] [%] | DC50 [3] [nM] | Emax [3] [%] | IC50 [4] [nM] |
| --- | --- | --- | --- | --- | --- | --- | --- | --- |
| Cc1ccc(CN2CCC(c3ccc4c5c(cccc35)N(C3CCC(=O)NC3=O)C4=O)CC2)cc1F (stereo not shown) [Compound 176] | – | – | > 10000 | – | 60 to 95 | > 10000 | 60 to 95 | < 100 |
| COc1ncc(CN2CCC(c3ccc4c5c(cccc35)N(C3CCC(=O)NC3=O)C4=O)CC2)cn1 (stereo not shown) [Compound 177] | – | – | > 10000 | – | 60 to 95 | > 10000 | 60 to 95 | < 100 |
| CC(C)(C)OC(=O)N1CCC(n2cc(Cc3ccc4c5c(cccc35)C(=O)N4[C@H]3CCC(=O)NC3=O)cn2)CC1 [Compound 197, tert-butyl 4-[4-[[1-[(3S)-2,6-dioxo-3-piperidyl]-2-oxo-benzo[cd]indol-6-yl]methyl]pyrazol-1-yl]piperidine-1-carboxylate] | < 100 | < 45 | > 10000 | – | 60 to 95 | < 100 | < 45 | – |
| N#CC1(C(=O)N2CCC(n3cc(Cc4ccc5c6c(cccc46)C(=O)N5C4CCC(=O)NC4=O)cn3)CC2)CCC1 (stereo not shown) [Compound 200, 1-[4-[4-[[1-(2,6-dioxo-3-piperidyl)-2-oxo-benzo[cd]indol-6-yl]methyl]pyrazol-1-yl]piperidine-1-carbonyl]cyclobutanecarbonitrile] | – | – | > 10000 | – | > 95 | < 100 | < 45 | – |
| O=C1CCC(N2C(=O)c3cccc4c(Cc5cnn(C6CCN(C(=O)C7(C(F)(F)F)CCC7)CC6)c5)ccc2c34)C(=O)N1 (stereo not shown) [Compound 201] | – | – | > 10000 | – | > 95 | < 100 | < 45 | < 100 |
| CC1(n2cc(Cc3ccc4c5c(cccc35)C(=O)N4C3CCC(=O)NC3=O)cn2)CCN(C(=O)C2(C(F)(F)F)CC2)CC1 (stereo not shown) [Compound 203] | – | – | > 10000 | – | 60 to 95 | < 100 | < 45 | < 100 |
| CC1(n2cc(Cc3ccc4c5c(cccc35)C(=O)N4C3CCC(=O)NC3=O)cn2)CCN(C(=O)C2(C#N)CCCCC2)CC1 (stereo not shown) [Compound 204] | – | – | > 10000 | – | 60 to 95 | < 100 | < 45 | < 100 |
| CC1(n2cc(Cc3ccc4c5c(cccc35)C(=O)N4C3CCC(=O)NC3=O)cn2)CCN(C(=O)C2CC2)CC1 (stereo not shown) [Compound 205] | – | – | > 10000 | – | 60 to 95 | < 100 | < 45 | < 100 |
| CC1(n2cc(Cc3ccc4c5c(cccc35)C(=O)N4C3CCC(=O)NC3=O)cn2)CCN(c2ncccc2F)CC1 (stereo not shown) [Compound 208, 3-[6-[[1-[1-(3-fluoro-2-pyridyl)-4-methyl-4-piperidyl]pyrazol-4-yl]methyl]-2-oxo-benzo[cd]indol-1-yl]piperidine-2,6-dione] | – | – | > 10000 | – | 60 to 95 | < 100 | < 45 | – |

Further lines, results first:

| DC50 [1] [nM] | Emax [1] [%] | DC50 ([2]; 293T.114 cells, 6 hours) [nM] | Emax [2, 5] [%] | Emax [2, 6] [%] | DC50 [3] [nM] | Emax [3] [%] | IC50 [4] [nM] | SMILES |
| --- | --- | --- | --- | --- | --- | --- | --- | --- |
| > 10000 | 60 to 95 | > 10000 | < 45 | 60 to 95 | > 10000 | 60 to 95 | < 100 | CCOc1ccc(Cc2ccc3c4c(cccc24)N(C2CCC(=O)NC2=O)C3=O)c(F)c1 (stereo not shown) [Compound 60, 3-(5-(4-ethoxy-2-fluorobenzyl)-2-oxobenzo[cd]indol-1(2H)-yl)piperidine-2,6-dione] |
| 100 to 1000 | < 45 | > 10000 | < 45 | 45 to 60 | 100 to 1000 | < 45 | < 100 | CCOC(=O)c1ccc(Cc2ccc3c4c(cccc24)N(C2CCC(=O)NC2=O)C3=O)cc1 (stereo not shown) [Compound 61, ethyl 4-((1-(2,6-dioxopiperidin-3-yl)-2-oxo-1,2-dihydrobenzo[cd]indol-5-yl)methyl)benzoate] |
| > 10000 | 60 to 95 | > 10000 | < 45 | 60 to 95 | > 10000 | 60 to 95 | < 100 | CCOC(=O)c1cccc(Cc2ccc3c4c(cccc24)N(C2CCC(=O)NC2=O)C3=O)c1 (stereo not shown) [Compound 62, ethyl 3-((1-(2,6-dioxopiperidin-3-yl)-2-oxo-1,2-dihydrobenzo[cd]indol-5-yl)methyl)benzoate] |
| – | – | – | < 45 | – | – | – | – | O=C1CCC(N2C(=O)c3ccc(CN4CC(Oc5ccccc5)C4)c4cccc2c34)C(=O)N1 (stereo not shown) [Compound 63, 3-(2-oxo-5-((3-phenoxyazetidin-1-yl)methyl)benzo[cd]indol-1(2H)-yl)piperidine-2,6-dione] |
| > 10000 | 45 to 60 | > 10000 | < 45 | 45 to 60 | < 100 | < 45 | < 100 | O=C1CCC(N2C(=O)c3ccc(CNC(=O)C(F)(F)c4ccc(Cl)cc4)c4cccc2c34)C(=O)N1 (stereo not shown) [Compound 64, 2-(4-chlorophenyl)-N-[[1-(2,6-dioxo-3-piperidyl)-2-oxo-benzo[cd]indol-5-yl]methyl]-2,2-difluoro-acetamide] |
| – | – | > 100 | – | 60 to 95 | < 100 | < 45 | – | O=C1CCC(N2C(=O)c3ccc(C4(F)CCN(Cc5ccccc5)CC4)c4nccc2c34)C(=O)N1 (stereo not shown) [Compound 81, 3-[18-(1-benzyl-4-fluoro-4-piperidyl)-24-oxo-27,30-diazatricyclododeca-5(17),6(18),7(19),8(27),20-pentaen-30-yl]piperidine-2,6-dione] |
| – | – | > 100 | – | 60 to 95 | < 100 | < 45 | – | Cc1cc(C)nc(-c2ccc3c4c(cccc24)N(C2CCC(=O)NC2=O)C3=O)n1 (stereo not shown) [Compound 87, 3-[5-(4,6-dimethylpyrimidin-2-yl)-2-oxo-benzo[cd]indol-1-yl]piperidine-2,6-dione] |
| – | – | > 100 | – | 60 to 95 | < 100 | < 45 | – | CN1CC(c2ccc3c4c(cccc24)N(C2CCC(=O)NC2=O)C3=O)C1 (stereo not shown) [Compound 90, 3-[5-(1-methylazetidin-3-yl)-2-oxo-benzo[cd]indol-1-yl]piperidine-2,6-dione] |
| – | – | > 10000 | – | 45 to 60 | – | – | – | O=C1CCC(N2C(=O)c3cc(CNCc4ccco4)cc4cccc2c34)C(=O)N1 (stereo not shown) [Compound 160] |
| – | – | > 100 | – | 60 to 95 | < 100 | < 45 | – | CC(NC(=O)c1ccc2c3c(ccnc13)N(C1CCC(=O)NC1=O)C2=O)c1ccccc1 (stereo not shown) [Compound 185, 27-(2,6-dioxo-3-piperidyl)-20-oxo-N-(1-phenylethyl)-24,27-diazatricyclododeca-6,8(15),9(24),13(16),14(17)-pentaene-14-carboxamide] |
| > 10000 | 60 to 95 | > 10000 | – | 60 to 95 | > 10000 | 60 to 95 | – | COC(=O)c1ccc(Nc2ccc3cccc4c3c2C(=O)N4C2CCC(=O)NC2=O)cc1 (stereo not shown) [Compound 186, Methyl 4-[[1-(2,6-dioxo-3-piperidyl)-2-oxo-benzo[cd]indol-3-yl]amino]benzoate] |
| > 10000 | 60 to 95 | > 10000 | – | 60 to 95 | < 100 | < 45 | – | O=C1CCC(N2C(=O)c3ccc(N4CCc5ccccc54)c4cccc2c34)C(=O)N1 (stereo not shown) [Compound 209, 3-(5-indolin-1-yl-2-oxo-benzo[cd]indol-1-yl)piperidine-2,6-dione] |
| – | – | > 100 | – | 60 to 95 | – | – | – | CN(c1ccc2c3c(cccc13)N(C1CCC(=O)NC1=O)C2=O)C1CCN(Cc2ccccc2)C1 (stereo not shown) [Compound 220] |
